The results in this text go back to patent publication US9980943B2, “Methods of treating muscular dystrophy” (BOARD OF REGENTS OF THE NEVADA SYSTEM OF HIGHER EDUCATION, …, priority 2013, dated 2018).

Molecules are shown by their SMILES. Like-named read-outs stand apart in the source and are kept apart here.

This test deals with α7 integrin (LacZ reporter in α7LacZ+/− myoblasts). The test is described as follows: qHTS of the LOPAC library and MLSMR (online screen, α7LacZ+/− myoblasts). Conditions: Mus musculus, Myoblast; for activation at 0.307 µM: read-out: Activity at 0.307 uM [%] **; for activation at 1.53 µM: read-out: Activity at 1.530 uM [%] **; for activation at 7.66 µM: read-out: Activity at 7.660 uM [%] **; for activation at 38.3 µM: read-out: Activity at 38.30uM [%] **; for EC50: read-out: Fit LogAC50 (converted). On the technique in general: qHTS replaces the single test concentration by a dilution series.

The mark [1] stands for this setting: 48 h, read-out: Fit Infinite Activity [%].

Turning to `CN(C)S(=O)(=O)c1ccc(C(=O)Nc2nc3ccccc3[nH]2)cc1` [Compound 116], the EC50 is 8.91 µM. Moreover, under “48 h”, the activation at 0.307 µM is -9.1%, the activation at 1.53 µM was -3.94%, the activation at 7.66 µM stood at 36.7% and the activation at 38.3 µM came to 84.9%. For the same compound, the Emax under setting [1] came out at 94.8%. The Emax (read-out: Max Response [%]) was determined as 84.9%.
Turning to `CC1(C)CC(O)=C/C(=N\c2ccc(C(=O)O)c(O)c2)C1` [Compound 99], the EC50 was 10 µM. For the same compound, for the setting “48 h”, the activation at 0.307 µM was 0.744%, the activation at 1.53 µM was found to be 1.73%, the activation at 7.66 µM amounted to 44.4% and the activation at 38.3 µM was determined as 114%. Besides, the Emax under setting [1] was 121%. The Emax (read-out: Max Response [%]) was determined as 114%.
On to `CC(=O)Nc1ccc(N(C(=O)c2cnccn2)C(C(=O)NC2CCCCC2)c2ccc(F)cc2)cc1` (stereo not shown) [Compound 44], for which the EC50 is 11.2 µM. Where the note is “48 h”, the activation at 0.307 µM was -13.5%, the activation at 1.53 µM was -18.8%, the activation at 7.66 µM worked out at 38.1% and the activation at 38.3 µM was 308%. Under setting [1], the Emax amounted to 311%.
Consider `C=CCn1c(COc2ccc(Cl)cc2)nnc1SCc1ccc(C#N)cc1` [Compound 220], for which, where the note is “48 h”, the activation at 0.307 µM is 7.14%, the activation at 1.53 µM stood at 9.51%, the activation at 7.66 µM came to 27.6% and the activation at 38.3 µM was 93.8%. Under setting [1], the Emax was found to be 95.1%. For the same compound, the Emax (read-out: Max Response [%]) turned out to be 93.8%.
As for `CC(C)c1ccc(NC(=O)CN2C(=O)c3ccccc3S2(=O)=O)cc1` [Compound 150], the EC50 was 10 µM. In addition, under “48 h”, the activation at 0.307 µM is 0%, the activation at 1.53 µM worked out at 0.16%, the activation at 7.66 µM amounted to 15.1% and the activation at 38.3 µM is 67.1%. Further, the Emax under setting [1] came out at 67.4%. In addition, where the note is “read-out: Max Response [%]”, the Emax amounted to 67.1%.
Regarding `O=C(NC1CCCC1)c1ccc(CS(=O)(=O)Cc2ccccc2F)o1` [Compound 7], the EC50 was 4.47 µM. Further, for the setting “48 h”, the activation at 0.307 µM came out at 13.4%, the activation at 1.53 µM is 25.3%, the activation at 7.66 µM worked out at 80.6% and the activation at 38.3 µM turned out to be 105%. In addition, the Emax under setting [1] came to 107%.
Take `O=c1oc2c(-c3cccc(F)c3)cc(O)cc2s1` [Compound 23]: the EC50 was 3.98 µM. Moreover, where the note is “48 h”, the activation at 0.307 µM is 12.6%, the activation at 1.53 µM was found to be 18.8%, the activation at 7.66 µM turned out to be 87.3% and the activation at 38.3 µM amounted to 98.9%. In addition, under setting [1], the Emax was found to be 98.5%.
Take `COc1ccc(O)c(/C=N/NC(=O)c2cc(O)nc3ccccc23)c1` [Compound 179]: for the setting “48 h”, the activation at 0.307 µM was -35.4%, the activation at 1.53 µM is -32.2%, the activation at 7.66 µM was 20.9% and the activation at 38.3 µM is 46.8%. The Emax under setting [1] is 48.4%. Moreover, under “read-out: Max Response [%]”, the Emax was 46.8%.
Regarding `Cc1ccc(NCc2nnc(SCC(=O)Nc3nnc(C)s3)n2C)cc1` [Compound 51], the EC50 was 10 µM. Where the note is “48 h”, the activation at 0.307 µM was -27.9%, the activation at 1.53 µM was -17.6%, the activation at 7.66 µM stood at 31.4% and the activation at 38.3 µM is 249%. Under setting [1], the Emax is 250%.
Turning to `COc1ccc(/C=C(\NC(=O)c2ccc(C)cc2)C(=O)Nc2ccc(C(=O)O)cc2)cc1` [Compound 160], where the note is “48 h”, the activation at 0.307 µM was -2.5%, the activation at 1.53 µM is -3.36%, the activation at 7.66 µM amounted to 16% and the activation at 38.3 µM was 99.8%. Moreover, the Emax under setting [1] came to 101%. Besides, the Emax (read-out: Max Response [%]) was 99.8%.
In the case of `C=CCc1c(C)nc(-c2ccccc2)nc1N/N=C/c1ccccc1` [Compound 213], for the setting “48 h”, the activation at 0.307 µM worked out at 0%, the activation at 1.53 µM came to 6.49%, the activation at 7.66 µM was 41.1% and the activation at 38.3 µM was determined as 90.1%. Moreover, under setting [1], the Emax was found to be 109%. Also, the Emax (read-out: Max Response [%]) was 90.1%.
`COCCn1c(=N)c(S(=O)(=O)c2ccc(Br)cc2)cc2c(=O)n3ccccc3nc21` [Compound 96]: the EC50 is 4.47 µM. Where the note is “48 h”, the activation at 0.307 µM is -7.89%, the activation at 1.53 µM was determined as 1.1%, the activation at 7.66 µM turned out to be 54.5% and the activation at 38.3 µM was determined as 73.2%. Under setting [1], the Emax is 75%. Further, the Emax (read-out: Max Response [%]) amounted to 73.2%.
Consider `Cc1ccccc1C(=O)Nc1nnc(SC(C)C)s1` [Compound 196], for which the EC50 was 10 µM. Besides, where the note is “48 h”, the activation at 0.307 µM turned out to be 0%, the activation at 1.53 µM was 0%, the activation at 7.66 µM came out at 20.6% and the activation at 38.3 µM came to 65.1%. For the same compound, the Emax under setting [1] was determined as 66.6%. Further, the Emax (read-out: Max Response [%]) came out at 65.1%.
`CC(C)(C)c1ccc(C(=O)OCC(=O)Nc2sc3c(c2C#N)CCC3)cc1` [Compound 85]: the EC50 was 5.01 µM. Besides, under “48 h”, the activation at 0.307 µM stood at 3.25%, the activation at 1.53 µM was 13.3%, the activation at 7.66 µM stood at 71.6% and the activation at 38.3 µM amounted to 101%. Also, the Emax under setting [1] came to 103%. The Emax (read-out: Max Response [%]) was determined as 101%.
Take `CSc1ncccc1C(=O)OCC(=O)c1cc(C)n(C)c1C` [Compound 134]: the EC50 was 10 µM. Also, where the note is “48 h”, the activation at 0.307 µM was -21%, the activation at 1.53 µM is -23.9%, the activation at 7.66 µM was -0.0686% and the activation at 38.3 µM was 72.9%. The Emax under setting [1] was found to be 72.9%. Moreover, the Emax (read-out: Max Response [%]) came out at 72.9%.
Consider `CNc1cc([N+](=O)[O-])ccc1OCc1ccccc1` [Compound 79], for which the EC50 was 4.47 µM. In addition, where the note is “48 h”, the activation at 0.307 µM was 1.52%, the activation at 1.53 µM stood at 16.2%, the activation at 7.66 µM turned out to be 57.3% and the activation at 38.3 µM is 80.2%. Under setting [1], the Emax stood at 84.8%. Moreover, for the setting “read-out: Max Response [%]”, the Emax amounted to 80.2%.
`O=C(COC(=O)c1cc2ccccc2oc1=O)Nc1ccc(F)cc1F` [Compound 60]: the EC50 was 4.47 µM. Further, for the setting “48 h”, the activation at 0.307 µM was -11%, the activation at 1.53 µM was determined as 4.45%, the activation at 7.66 µM worked out at 78.3% and the activation at 38.3 µM came out at 115%. The Emax under setting [1] is 116%. For the same compound, where the note is “read-out: Max Response [%]”, the Emax came out at 115%.
Take `Cc1nnc(NC(=O)CSc2nnc(CCNC(=O)c3ccccc3F)n2C)s1` [Compound 147]: for the setting “48 h”, the activation at 0.307 µM stood at 0.45%, the activation at 1.53 µM is 2.7%, the activation at 7.66 µM turned out to be 29.1% and the activation at 38.3 µM is 84.9%. Also, the Emax under setting [1] is 91.2%. For the same compound, the Emax (read-out: Max Response [%]) was 84.9%.
As to `O=S(=O)(N/C(=N/C1CCCCC1)c1ccccc1F)c1ccccc1` [Compound 156], the EC50 was 10 µM. Besides, for the setting “48 h”, the activation at 0.307 µM amounted to 0%, the activation at 1.53 µM was found to be 0%, the activation at 7.66 µM was found to be 22.9% and the activation at 38.3 µM came to 65.3%. Also, under setting [1], the Emax was determined as 67.8%. In addition, where the note is “read-out: Max Response [%]”, the Emax was 65.3%.
Turning to `O=C(NCCc1ccc(F)cc1)N[C@@H](Cc1ccccc1)C(=O)O` [Compound 165], where the note is “48 h”, the activation at 0.307 µM was -20.5%, the activation at 1.53 µM is -20.4%, the activation at 7.66 µM came out at 0% and the activation at 38.3 µM turned out to be 108%. In addition, the Emax under setting [1] turned out to be 109%. For the same compound, the Emax (read-out: Max Response [%]) stood at 108%.
